ChEMBL document CHEMBL6103568, “An overview of small-molecule agents for the treatment of psoriasis” (Bioorg Med Chem, 2025)
One block for each molecule: values may come before it.

Key:
[1] = molecular target: Tyrosine-protein kinase JAK2 (Homo sapiens, UniProt O60674); assay: Inhibition of JAK2 (unknown origin)
Cytochrome P450 3A5 = Cytochrome P450 3A5 (Homo sapiens, UniProt P20815); assay: Inhibition of CYP3A5 (unknown origin); type: ADME
[2] = molecular target: 3',5'-cyclic-AMP phosphodiesterase 4B (Homo sapiens, UniProt Q07343); assay: Inhibition of PDE4B (unknown origin)
3',5'-cyclic-AMP phosphodiesterase 4B, sequence (Q07343 whole entry): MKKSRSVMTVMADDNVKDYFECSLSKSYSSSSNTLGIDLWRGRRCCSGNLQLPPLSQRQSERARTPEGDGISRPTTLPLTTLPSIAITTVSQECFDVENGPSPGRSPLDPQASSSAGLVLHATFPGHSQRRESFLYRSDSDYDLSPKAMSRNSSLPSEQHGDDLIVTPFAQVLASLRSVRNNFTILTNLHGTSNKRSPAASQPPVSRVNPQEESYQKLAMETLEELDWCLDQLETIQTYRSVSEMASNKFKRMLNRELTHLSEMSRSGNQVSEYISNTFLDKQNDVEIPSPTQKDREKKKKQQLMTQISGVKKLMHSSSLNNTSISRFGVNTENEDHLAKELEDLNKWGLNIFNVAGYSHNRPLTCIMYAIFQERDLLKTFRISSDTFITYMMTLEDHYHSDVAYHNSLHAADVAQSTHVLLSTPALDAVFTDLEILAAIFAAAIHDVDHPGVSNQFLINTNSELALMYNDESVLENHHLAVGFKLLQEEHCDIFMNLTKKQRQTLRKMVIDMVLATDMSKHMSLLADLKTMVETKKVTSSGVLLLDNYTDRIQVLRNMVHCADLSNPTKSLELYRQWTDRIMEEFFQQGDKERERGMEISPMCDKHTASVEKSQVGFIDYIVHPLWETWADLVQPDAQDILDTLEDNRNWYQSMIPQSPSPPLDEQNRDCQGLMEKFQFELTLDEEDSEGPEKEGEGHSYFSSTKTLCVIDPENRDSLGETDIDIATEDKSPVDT

[3] = molecular target: Sphingosine 1-phosphate receptor 1 (Homo sapiens, UniProt P21453); assay: Agonist activity at S1P1 (unknown origin) by HTRF assay; type: functional
Sphingosine 1-phosphate receptor 1, sequence (P21453 whole entry): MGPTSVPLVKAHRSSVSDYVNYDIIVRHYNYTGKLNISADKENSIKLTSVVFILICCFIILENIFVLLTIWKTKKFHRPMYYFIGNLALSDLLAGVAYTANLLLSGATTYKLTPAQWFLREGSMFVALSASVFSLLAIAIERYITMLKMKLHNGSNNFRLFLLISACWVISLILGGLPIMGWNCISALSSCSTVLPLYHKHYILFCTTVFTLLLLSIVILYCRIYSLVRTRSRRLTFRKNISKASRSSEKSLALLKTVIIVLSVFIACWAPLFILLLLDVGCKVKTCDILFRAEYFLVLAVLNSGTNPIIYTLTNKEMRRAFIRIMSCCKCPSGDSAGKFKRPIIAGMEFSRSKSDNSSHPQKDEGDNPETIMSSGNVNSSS

Phosphodiesterase 4 = Phosphodiesterase 4 (Homo sapiens, UniProt P27815+Q08499+Q07343+Q08493); assay: Inhibition of PDE4 (unknown origin); type: protein assay

Tyrosine-protein kinase JAK2, sequence (O60674 whole entry): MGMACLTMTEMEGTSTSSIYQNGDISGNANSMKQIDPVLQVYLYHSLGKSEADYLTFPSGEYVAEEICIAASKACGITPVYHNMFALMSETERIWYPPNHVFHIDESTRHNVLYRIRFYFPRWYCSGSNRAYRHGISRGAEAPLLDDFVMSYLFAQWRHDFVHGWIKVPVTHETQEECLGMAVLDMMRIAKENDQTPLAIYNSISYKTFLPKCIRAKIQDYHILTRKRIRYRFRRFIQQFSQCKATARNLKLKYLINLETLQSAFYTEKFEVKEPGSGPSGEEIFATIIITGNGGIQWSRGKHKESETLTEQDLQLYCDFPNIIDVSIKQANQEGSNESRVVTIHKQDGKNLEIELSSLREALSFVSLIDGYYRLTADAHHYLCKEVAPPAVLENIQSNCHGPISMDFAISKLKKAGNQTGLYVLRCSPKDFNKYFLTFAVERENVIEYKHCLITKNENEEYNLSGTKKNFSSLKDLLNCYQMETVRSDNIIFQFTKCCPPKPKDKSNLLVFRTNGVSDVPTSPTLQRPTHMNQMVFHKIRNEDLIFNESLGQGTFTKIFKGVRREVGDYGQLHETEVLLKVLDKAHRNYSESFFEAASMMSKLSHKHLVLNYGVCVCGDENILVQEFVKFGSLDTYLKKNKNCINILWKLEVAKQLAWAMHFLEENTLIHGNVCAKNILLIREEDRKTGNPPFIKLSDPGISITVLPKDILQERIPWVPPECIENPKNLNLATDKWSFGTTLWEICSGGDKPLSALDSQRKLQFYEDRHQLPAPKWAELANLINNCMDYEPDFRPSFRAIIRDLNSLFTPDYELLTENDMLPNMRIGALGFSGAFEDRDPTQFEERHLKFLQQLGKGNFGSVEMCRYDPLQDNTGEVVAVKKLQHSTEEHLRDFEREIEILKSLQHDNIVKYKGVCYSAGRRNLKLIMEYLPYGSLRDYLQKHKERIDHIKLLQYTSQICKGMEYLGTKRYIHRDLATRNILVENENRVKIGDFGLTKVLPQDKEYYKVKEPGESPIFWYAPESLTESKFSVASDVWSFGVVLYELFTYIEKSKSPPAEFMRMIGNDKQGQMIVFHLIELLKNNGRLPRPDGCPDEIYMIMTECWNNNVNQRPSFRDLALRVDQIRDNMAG
Cytochrome P450 3A5, sequence (P20815 whole entry): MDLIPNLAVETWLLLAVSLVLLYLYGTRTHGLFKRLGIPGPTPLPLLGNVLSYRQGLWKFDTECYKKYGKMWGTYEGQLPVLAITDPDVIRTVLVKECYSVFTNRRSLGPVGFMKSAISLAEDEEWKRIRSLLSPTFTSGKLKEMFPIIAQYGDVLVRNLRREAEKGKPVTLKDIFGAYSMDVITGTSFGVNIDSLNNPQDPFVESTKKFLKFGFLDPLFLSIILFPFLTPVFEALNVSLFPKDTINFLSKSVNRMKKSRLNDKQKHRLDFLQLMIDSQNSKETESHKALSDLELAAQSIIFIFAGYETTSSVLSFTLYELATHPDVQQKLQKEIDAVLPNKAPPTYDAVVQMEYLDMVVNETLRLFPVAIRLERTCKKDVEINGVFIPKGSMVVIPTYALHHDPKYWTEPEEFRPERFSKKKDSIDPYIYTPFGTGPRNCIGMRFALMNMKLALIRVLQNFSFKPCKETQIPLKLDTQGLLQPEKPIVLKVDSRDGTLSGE

IC50 [1]: 5.7 nM
SMILES: CCS(=O)(=O)N1CC(CC#N)C1n1cc(-c2ncnc3[nH]ccc23)cn1 (stereo not given)

IC50 (Cytochrome P450 3A5): 206 nM
SMILES: O=C(O)CC1CCN(C(=O)c2ccc(Cl)c(Cn3ccc4cc(C(F)(F)F)cc(Cl)c43)c2Cl)CC1 [CEDIROGANT]

IC50 [2]: 74 nM
SMILES: COc1ccc([C@H](N2C(=O)c3cccc(NC(C)=O)c3C2=O)S(C)(=O)=O)cc1OC

EC50 [3]: 6 nM
SMILES: CCC/N=C1/S/C(=C\c2ccc(OC[C@H](O)CO)c(Cl)c2)C(=O)N1c1ccccc1C

IC50 (Phosphodiesterase 4): 114 nM
SMILES: CCOc1cc([C@@H](CS(C)(=O)=O)N2C(=O)c3csc(NC(C)=O)c3C2=O)ccc1OC
